Laboratory results published in PubChem BioAssay (NCI).
Several values for one entry are separate records, joined by “and”; a condition that tells them apart may be missing. Identical values can stand only once.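 Each compound was tested at five concentrations against cells in 96-well plates for 48 hours. Here, GI50 denotes the concentration required for 50% inhibition of growth. Definition used: TGI = concentration required for complete inhibition of growth.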

Columns and labels:
Assay in all cases: inhibition of tumour cell growth, NCI panel, 48 h
[1] = system: HCT-15 colon
[2] = system: HS 578T breast
[3] = system: MOLT-4 leukemia
[4] = system: NCI-H23 lung
[5] = system: NCI/ADR-RES ovarian
[6] = system: OVCAR-5 ovarian
[7] = system: OVCAR-8 ovarian
[8] = system: SF-539 CNS
[9] = system: SK-MEL-2 melanoma
[10] = system: SNB-75 CNS

SMILES	TGI [1]	TGI [2]	TGI [3]	TGI [4]	TGI [5]	TGI [6]	TGI [7]	TGI [8]	TGI [9]	TGI [10]	GI50 [1]	GI50 [2]	GI50 [3]	GI50 [4]	GI50 [5]	GI50 [6]	GI50 [7]	GI50 [8]	GI50 [9]	GI50 [10]
COc1cc(/C=C2\CCC(CN(C)C)C2=O)ccc1OC(=O)c1ccccc1 (stereo not given)	20.4 µM	74.8 µM	7.03 µM	36.7 µM	48.7 µM	33.8 µM	22 µM	30.4 µM	32.7 µM	35 µM	–	–	–	–	–	–	–	–	–	–
COC(=O)[C@]12CC[C@@H](C)[C@H](C)[C@@H]1C1=CC[C@@H]3[C@@]4(C)C=C(O)C(=O)[C@@]5(C)COC(=C54)C[C@@]3(C)[C@]1(C)CC2	26.6 µM	49.9 µM	6.52 µM	18.2 µM	45.6 µM	49.6 µM	47 µM	44.3 µM	29.6 µM	43.1 µM	11.6 µM	16.1 µM	2.21 µM	4.19 µM	14.3 µM	20.9 µM	12.9 µM	18.4 µM	13.1 µM	14.8 µM
COc1ccccc1C#Cc1ccccc1C#CCCCCCC#Cc1ccccc1C#Cc1ccccc1OC	> 100 µM	> 100 µM	> 100 µM	> 100 µM	> 100 µM	> 100 µM	> 100 µM	> 100 µM	> 100 µM	14.3 µM	40.9 µM	> 100 µM	> 100 µM	43.9 µM	78.6 µM	> 100 µM	> 100 µM	> 100 µM	> 100 µM	1.81 µM
Cn1cc(-c2cnc3ccc4ccc(CS(=O)(=O)NCc5ccccn5)cc4c(=O)c3c2)cn1	37.1 µM	> 100 µM	52.5 µM	> 84.7 µM	> 100 µM	> 100 µM	> 100 µM	41.2 µM	53.4 µM	47.8 µM	5.67 µM	14 µM	9.09 µM	16.2 µM	23.5 µM	29.5 µM	18.8 µM	16.9 µM	11.8 µM	6.45 µM
NS(=O)(=O)c1cccc(N=Cc2c(O)[nH]c3ccccc23)c1	> 25 µM	> 25 µM	> 25 µM	> 25 µM	> 25 µM	> 25 µM	> 25 µM	> 25 µM	> 25 µM	> 25 µM	> 25 µM	> 25 µM	> 25 µM	> 25 µM	> 25 µM	> 25 µM	> 25 µM	> 25 µM	> 25 µM	> 25 µM
c1ccc(-n2nnnc2-c2cccc3ccccc23)cc1	> 100 µM	> 100 µM	> 100 µM	> 100 µM	1.61 µM	> 100 µM	> 100 µM	3.43 µM	> 63.1 µM	> 27.7 µM	0.348 µM	1.36 µM	0.657 µM	1.28 µM	0.279 µM	3.27 µM	1.48 µM	0.445 µM	3.68 µM	1.55 µM
N#CC1=C(N)NC(=O)NC12Nc1ccccc1S2 (stereo not given)	87 µM	> 70.4 µM	> 100 µM	47.7 µM	> 68.8 µM	> 72.3 µM	> 37.8 µM	> 54.9 µM	> 64.2 µM	> 100 µM	26.7 µM	25.5 µM	> 48.3 µM	19.3 µM	24.7 µM	27 µM	6.07 µM	20.8 µM	> 44.4 µM	51 µM
Cc1cc(Cc2cc(C)cc(C(C)(C)C)c2O)c(O)c(C(C)(C)C)c1	14.5 µM	29.2 µM	> 100 µM	16.3 µM	21.8 µM	27.5 µM	16.4 µM	26 µM	33.6 µM	24.3 µM	4.29 µM	11.2 µM	6.27 µM	4.23 µM	10.1 µM	14.4 µM	5.17 µM	13.3 µM	15.1 µM	11.9 µM
Cc1c2c[n+](C(C)C)ccc2c(C)c2c1[nH]c1ccccc12	> 100 µM	19 µM	17.8 µM	15.7 µM	> 100 µM	> 100 µM	32.1 µM	16.4 µM	9.81 µM	40.9 µM	52.1 µM	1.13 µM	3.28 µM	1.75 µM	56.5 µM	5.95 µM	1.46 µM	1.62 µM	2.89 µM	1.34 µM
Cc1cc(Nc2ncnc3ccc(NC4=NC(C)(C)CO4)cc23)ccc1Oc1ccn2ncnc2c1	> 65.9 µM	62.4 µM and > 10 µM	42.2 µM and > 10 µM	41.7 µM and > 10 µM	89.2 µM and > 10 µM	62.9 µM and > 10 µM	55.1 µM and > 10 µM	31.2 µM and > 10 µM	46.4 µM and > 10 µM	51.9 µM and > 10 µM	8.92 µM and > 10 µM	15.2 µM and > 10 µM	14.6 µM and > 10 µM	17 µM and > 10 µM	17.1 µM and > 10 µM	17.1 µM and > 10 µM	8.75 µM and > 10 µM	15.6 µM and > 10 µM	20.1 µM and > 10 µM	15.6 µM and > 10 µM
COc1ccc(Cl)cc1NC(=O)C(Br)C(Br)C(=O)O (stereo not given)	32.2 µM	> 100 µM	> 100 µM	47.8 µM	9.26 µM	57 µM	> 100 µM	25.4 µM	26.2 µM	> 60.1 µM	10.2 µM	43.9 µM	6.78 µM	11.9 µM	3.03 µM	27.9 µM	9.01 µM	11.5 µM	7.54 µM	26.6 µM
O=C(O)c1ccc(N/C=C2\C(=O)c3ccccc3OC2O)cc1O (stereo not given)	26.6 µg/mL	76.5 µg/mL	77.9 µg/mL	58.4 µg/mL	78.6 µg/mL	78.5 µg/mL	97.2 µg/mL	39.1 µg/mL	51.1 µg/mL	84.3 µg/mL	6.17 µg/mL	11.2 µg/mL	13.2 µg/mL	19 µg/mL	22.3 µg/mL	31.2 µg/mL	22 µg/mL	16.5 µg/mL	23.5 µg/mL	17.7 µg/mL
CC(=O)O/N=C1/C(c2c(O)[nH]c3cc(Br)ccc23)=Nc2ccccc21	2.72 µM	1.79 µM	5.07 µM	3.62 µM	4.59 µM	4.17 µM	4.53 µM	3.13 µM	2.89 µM	5.11 µM	0.962 µM	0.0698 µM	1.78 µM	1.63 µM	1.73 µM	2.51 µM	1.59 µM	0.818 µM	1.28 µM	0.811 µM
C=CCC(N[C@H](CO)c1ccccc1)c1cn(C(=O)OCC)c2ccccc12 (stereo not given in full)	39.4 µM	46 µM	41.6 µM	32 µM	32.4 µM	33.8 µM	27.7 µM	35.1 µM	42 µM	74.3 µM	18.6 µM	19.4 µM	17.8 µM	15.8 µM	15.9 µM	16.3 µM	13.4 µM	18.6 µM	18.4 µM	23 µM
COc1ccc2c(c1)C(c1ccccc1Cl)=Nc1c(n[nH]c1C)N2	> 25 µM	20.3 µM	> 25 µM	> 25 µM	> 25 µM	> 25 µM	> 25 µM	> 18.8 µM	> 23.4 µM	> 17.3 µM	14 µM	3.43 µM	> 25 µM	22.6 µM	> 25 µM	> 25 µM	> 25 µM	4.95 µM	> 11.2 µM	3.14 µM
Cc1cc(C)c(O)c(CN(C)Cc2cc(Cl)cc(Cl)c2O)c1	16.8 µM	32.8 µM	34.7 µM	17.3 µM	12.5 µM	20.5 µM	12.1 µM	25.1 µM	19.6 µM	36.4 µM	3.41 µM	5.41 µM	3.45 µM	3.91 µM	2.89 µM	6.12 µM	2.78 µM	6.43 µM	6.52 µM	11.5 µM
